For one data set, the system named is sperm. The experiment in a line: Sperm acrosomal loss. It is filed as cell-based. The note with it: 0.5 μg/ml, read-out: maximal acrosomal loss induced.
The subject of a further data set is Lactobacillus gasseri. The experiment in a line: Growth of normal vaginal flora bacterium in culture. It is filed as cell-based. The procedure: This example illustrates the effect of the inhibitory agents of this invention on the normal vaginal flora. Lactobacillus gasseri, which is found in normal vaginal flora, was obtained from the American Type Culture Collection (Rockville, Md.) and cultured under anaerobic conditions at 37° C. in the presence of the desired test agents. Control samples without added test agents were also run. Samples were collected at twenty minute intervals starting at 120 minutes after the start of incubation through 240 minutes. The absorbance at 550 nm was used to estimate the cell density and inhibitory effects. Nonoxynol-9 was also evaluated for comparison purposes.

The test system of a further data set is HIV-1. The experiment in a line: Viral binding inhibition assay (syncytia formation in MT2 cells). It counts as cell-based, HIV-1 (strain III).
For data set [1], the system named is sheep testicular hyaluronidase. As to the kind of experiment: Hyaluronidase inhibition (hyaluronic acid hydrolysis). It counts as biochemical. The note with it: for IC50: pH 5.5, 10 minutes preincubation. Here is the method: Hyaluronidase activity was quantitatively determined by measuring the extent of hyaluronic acid hydrolysis (i.e., the concentration of N-acetylglucosamine-reactive material formed from enzyme activity). Reaction mixtures (0.25 ml) containing the following were prepared: test compound (variable concentration); 0.1 M sodium acetate; 0.15 M sodium chloride; pH adjusted to 5.5; 7.2 units sheep testicular hyaluronidase (Sigma, Type III; H-2251) contained in an acetate buffer; 0.3 mg/ml hyaluronic acid (Sigma, from bovine vitreous humor; H-7630). The enzyme was preincubated with the test agent (1 mg/ml for screening purposes) for 10 minutes before starting the reaction by the addition of hyaluronic acid. The enzyme reaction was determined using the method of Aronson and Davidson (J. Biol. Chem. 241 437-440 (1967)). The reaction mixture was incubated for 30 minutes at room temperature. The reaction product was determined colorimetrically with p-dimethylaminobenzaldehyde (Reissig et al., J. Biol. Chem. 217 959-966 (1965)) by measuring the absorbance at 545 nm.
The reversibility of the hyaluronidase was determined by evaluating enzyme activity at different levels of enzyme (Ackermann and Potter, Proc. Soc. Exp. Biol. Med. 72 1-9 (1949)).

A short description of a further data set: physchem. It counts as physicochemical.
Another data set deals with Neisseria gonorrhea. As to the kind of experiment: Bacterial multiplication assay (gonococci). It is filed as cell-based. Here is the method: This example illustrates the inhibitory effect for several of the inhibitory agents of this invention on Neisseria gonorrhea using a bacterial multiplication assay. Neisseria gonorrhea isolated from local uncomplicated cases of gonorrhea was verified by Gram stain, oxidase reactivity, and sugar fermentation. The titer of log-phase cultures was adjusted by dilution in GC broth to about 10^8 colony forming units per milliliter. Samples were diluted with broth containing no additives (control) and serial dilutions of the test agents (1000 μg/ml to 0.1 μg/ml). The resulting cultures were incubated at 37° C. for 4 hours. Five serial dilutions were made with GC broth; each dilution was inoculated onto GC agar plates. The inoculated plates were incubated overnight at 37° C. and the resultant gonococcal colonies were counted using bright-field microscopy.

For data set [2], the system named is rabbit spermatozoa. The experiment in a line: Contraceptive effect: rabbit sperm treated before artificial insemination. It is filed as in vivo. The procedure: Rabbit spermatozoa were collected and then diluted in a TALP buffer containing glucose, lactate, and pyruvate. Test compounds were dissolved in the same buffer system.
Data set [3] relates to human immunodeficiency virus (HIV-1, RF strain). As to the kind of experiment: microbe, parasite or virus in culture. The note with it: Human immunodeficiency virus 1, read-out: kill of the virus in culture.
Experimental: For the cell-free virus inactivation assay, HIV is added to the test agent in water and incubated for about 2 minutes. After removal of the test agent by dilution, the treated virus is added to target cells and incubated for 7 days.
The test system of the next data set is HSV (type 2, strain 333). The experiment in a line: Anti-HSV plaque assay on Vero cells. It counts as cell-based, herpes simplex virus. The procedure: Viral infectivity was measured by co-culturing herpes simplex virus (HSV) with Vero (African green monkey kidney) cells in phosphate-buffered solutions.
The test agent was serially diluted (0.1 μg/ml to 500 μg/ml) in phosphate-buffered saline (PBS). Each dilution was mixed with HSV (type 2, strain 333). Samples (1 ml) of each mixture were plated in triplicate on washed and drained monolayers of Vero (African green monkey kidney) cells on the bottom of […] flasks. The initial titer in each culture was determined as plaque forming units per milliliter using control cultures with no added test agents. Flasks were incubated at 37° C. for 2 hours and the medium (containing virus and test agent) removed. After washing the cells with PBS, the cells were cultured in supplemented medium 199 (Sigma Chem., cat. no. M9163) for 3 days. After culturing, the cells were stained with Giemsa and the number of viral plaques was determined by phase contrast microscopy. After correcting for dilutions, the viral titer was estimated from the number of plaques. Data were also expressed as the percentage of plaques relative to the control samples (not exposed to test agents). […] The concentration of test agent that was required to reduce the viral titer by 50 percent (IC50) was estimated with curve-fitting software from plots of plaque-forming units per milliliter against the concentration of test agent.

The subject of data set [4] is Chlamydia trachomatis (serotype E/UW-5/CS). The experiment in a line: Chlamydia multiplication assay in HeLa monolayers. It counts as cell-based. The procedure:
This example illustrates the inhibitory effect of several of the inhibitory agents of this invention on Chlamydia trachomatis using a multiplication assay. Immediately before the assay, cryopreserved Chlamydia trachomatis (serotype E/UW-5/CS) samples were quickly thawed at 37° C. and suspended in Hank's balanced salt solution (HBSS) by mild sonication. Serial 1:10 dilutions (10^-1 to 10^-7) of the bacterial suspension were made. HeLa monolayers on coverslips were inoculated with 100 μl of the chlamydia samples in the presence (0.1, 1.0, 10, 100, and 1000 μg/ml) or absence of the test agents. After one hour, the monolayers were washed with HBSS to remove free chlamydia and test agent (if present) and then incubated for 48 hours in HBSS at 37° C.
After the medium was removed, the HeLa monolayer samples were fixed in methanol and washed. The cells were then treated with Kallsted Chlamydia Culture Confirmation fluorescein-conjugated Monoclonal Antibody for 30 minutes at room temperature in a dark, humidified chamber. The cells were then washed with water and covered with coverslip using a mounting medium. Inclusions due to chlamydia infection were visualized with a fluorescent microscope as green fluorescence.

Data set [5] concerns rabbit spermatozoa. The experiment in a line: Motility of rabbit sperm in the contraceptive test. It is filed as cell-based. The note with it: rabbit sperm in TALP buffer. The procedure:
Rabbit spermatozoa were collected and then diluted in a TALP buffer containing glucose, lactate, and pyruvate. Test compounds were dissolved in the same buffer system. […] Female rabbits were then artificially inseminated with about 0.5 ml of buffer containing about 22.5-30×10^6 sperm. For controls (i.e., sperm and buffer containing no added contraceptive agents), fertilization averaged about 96 percent.

A further data set has as its system spermatozoa. It counts as cell-based. The note with it: concentrations as high as 20 mg/ml.
Data set [6] relates to vaginal/cervical epithelial and other cells. The note with it: concentrations as low as; cited from earlier work.
Another data set concerns MT2 cells. The experiment in a line: Cytotoxicity towards host cells of the viral binding assay. It is filed as cell-based. The note with it: at the levels of the HIV viral binding assay. Here is the method: Serial dilutions of the test compounds (ranging from 0.1 μg/ml to 1.0 mg/ml) were added to HIV-1 virus such that 50 μl inoculum produced between 70 to 100 syncytia per well in untreated wells containing MT2 cells. The HIV-1 used was strain III, propagated in, and harvested from, a T4-lymphobastoid cell line. Each serial dilution of the test compound with virus was placed in each of three wells containing MT2 cells. The test compound alone was added to a fourth well containing MT2 cells to test for possible cytotoxicity. Triplicate virus control samples (no added test compounds but containing the equivalent amounts of the RPMI medium) were also included.

Values after ≈ are worked out from the molar mass of the structure shown. “Also recorded” adds a separate entry of the source.

As usually defined, the IC50 is the concentration that inhibits the measured activity by half. A low value points to greater potency in that assay. The term solubility denotes how much of the substance goes into solution per volume. On to `O=C(O)C(OC(C(=O)O)c1ccccc1)c1ccccc1` (stereo not drawn) [H2 SO4 -modified Mandelic Acid, 2,2'-diphenyl-2,2'-oxy-di-acetic acid], for which, in the data set with sperm, the Emax at 0.5 µg/mL was about 70%. In the data set on Lactobacillus gasseri, the “effect on normal vaginal flora” value was “no apparent adverse effects”. In addition, the “effect on the growth of Lactobacillus” value with Lactobacillus gasseri (5 mg/ml) is given as “did not have any effect; also recorded: not affected”. In addition, the IC50 with HIV-1 (Human immunodeficiency virus 1, HIV-1, MT2 cells) is 0.3 µg/mL (≈ 0.00105 mM); in data set [1], 8.4 µg/mL (≈ 0.0293 mM); in the data set on Neisseria gonorrhea (Neisseria, gonococcal multiplication, 4 hours) it was 15 to 17 µg/mL (≈ 0.0524 to 0.0594 mM); in [4] it was 0.05 µg/mL (≈ 0.000175 mM). The IC100 in the data set with HIV-1 (Human immunodeficiency virus 1, read-out: Complete Inhibition (lowest concentration at which complete inhibition occurs), HIV-1, MT2 cells) stood at 5 µg/mL. In addition, in [1] (enzyme activity at different levels of enzyme), the “reversibility of hyaluronidase inhibition” value is listed as “irreversible”. Besides, in “physchem”, the “water solubility (in words)” value is on record as “water soluble”. In addition, in the data set “physchem” (water), the solubility is about 350 mg/mL (≈ 1220 mM). In addition, the “inhibition of gonococcal multiplication/growth” value in the data set on Neisseria gonorrhea (100 μg/ml) is “completely inhibited; also recorded: complete inhibition”. In the data set with rabbit spermatozoa [2] (5 mg/ml added to sperm/buffer, about 15 minutes at 37° C., controls about 96 percent), the “fertilization (average)” value was “about 10%”. In addition, the conception entry in the data set with rabbit spermatozoa [2] (rabbit sperm treated with about 5 mg/ml prior to artificial insemination) is recorded as “nearly complete inhibition of conception”. Further, the killing at 10 µg/mL in [3] was about 99%. Moreover, the “HSV inhibition in culture” value in the data set on HSV (type 2, strain 333) (10 μg/ml) is on record as “completely inhibited”. The IC99.9 in the data set with HSV (type 2, strain 333) (Vero, read-out: Inhibition 3-Log (99.9 percent), concentration) turned out to be 6.8 µg/mL. For the same molecule, the IC99.99 in the data set with HSV (type 2, strain 333) (Vero, read-out: Inhibition 4-Log (99.99 percent), concentration) was found to be 10 µg/mL. The sperm motility result with rabbit spermatozoa [5] is recorded as “did not effect sperm motility”; in the data set on spermatozoa it was “did not result in the loss of sperm motility”.
Consider Nonoxynol-9 [reference compound], for which, in the data set on Lactobacillus gasseri (0.5 mg/ml), the “inhibition of Lactobacillus gasseri growth” value was “about 60%”. Besides, the IC50 result in data set [1] is “inactive”. Also, the “concentration that can injure cells” value in data set [6] is “about 0.0005%”. In addition, the “cytotoxicity towards the MT2 cells” value in the data set on MT2 cells is “did show cytotoxic effects”.

The values above are taken from patent US5932619A, “Method for preventing sexually transmitted diseases” (Rush-Presbyterian, St. Luke's Medical Center, priority 1997, dated 1999).
